# Source: the supplement of paper PMC12137928
# Where a name gives a salt, the structure may show the parent alone.
# System: HCT116
# Conditions: 72 h
# Outline: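 HCT116 cells went into 1536-well plates at 250 per well. CellTiter-Glo luminescence was expressed relative to vehicle (0%) and positive control (-100%) and then pattern-corrected. Both IC50 and maximal efficacy were taken from four-parameter Hill fits.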
SMILES,IC50 cell viability (ICRF193 0 nM) [µM],IC50 cell viability (ICRF193 200 nM) [µM]
CSCC[C@H](N)C(=O)O [L-Methionine],> 45.8,> 45.8
CC(C)(S)[C@H](N)C(=O)O [L-Penicillamine],> 45.8,> 45.8
O=C(O)[C@@H]1CCCN1 [L-Proline],> 45.8,> 45.8
C[C@@H](O)[C@H](N)C(=O)O [L-Threonine],> 45.8,> 45.8
N[C@@H](Cc1cc(I)c(Oc2cc(I)c(O)c(I)c2)c(I)c1)C(=O)O [L-Thyroxine],> 45.8,> 45.8
CC(C)[C@H](N)C(=O)O [L-Valine],> 45.8,> 45.8
Nc1nc(=O)c2c([nH]1)NCC(CNc1ccc(C(=O)N[C@@H](CCC(=O)O)C(=O)O)cc1)N2C=O (stereo partly drawn) [LEUCOVORIN CALCIUM],> 45.8,> 45.8
C[C@@H]1NC(=O)[C@@H]2CCCN2C(=O)[C@H](CC(N)=O)NC(=O)[C@@H]2CSSC[C@H](N)C(=O)N[C@H]3CSSC[C@H](NC1=O)C(=O)N[C@@H]([C@@H](C)O)C(=O)NCC(=O)N[C@H](C(=O)N[C@@H](Cc1ccc(O)cc1)C(=O)O)CSSC[C@H](NC(=O)[C@H](Cc1ccc(O)cc1)NC(=O)[C@H](CCC(=O)O)NC3=O)C(=O)N2 [LINACLOTIDE (1 mg/ml)],> 45.8,> 45.8
Cl[C@H]1[C@H](Cl)[C@@H](Cl)[C@@H](Cl)[C@H](Cl)[C@H]1Cl [LINDANE],> 45.8,> 45.8
O.O.O.O.O=C([O-])CC(O)(CC(=O)[O-])C(=O)[O-].[Li+].[Li+].[Li+] [LITHIUM CITRATE],> 45.8,> 45.8
CN1[C@@H](CC(=O)c2ccccc2)CCC[C@H]1C[C@H](O)c1ccccc1 [LOBELINE HYDROCHLORIDE],> 45.8,> 45.8
CC(CCc1ccccc1)NCC(O)c1ccc(O)c(C(N)=O)c1 (stereo not drawn) [Labetalol HCl],> 45.8,> 45.8
OC[C@@H](O)[C@@H](O[C@@H]1O[C@H](CO)[C@H](O)[C@H](O)[C@H]1O)[C@H](O)[C@@H](O)CO [Lactitol],> 45.8,> 45.8
O=C(C[S+]([O-])Cc1ccco1)NC/C=C\COc1cc(CN2CCCCC2)ccn1 (stereo not drawn) [Lafutidine],> 45.8,> 45.8
Nc1ccn([C@@H]2CS[C@H](CO)O2)c(=O)n1 [Lamivudine],> 45.8,> 45.8
Nc1nnc(-c2cccc(Cl)c2Cl)c(N)n1 [Lamotrigine],> 45.8,> 45.8
CC1(C)OC[C@@H](COC(=O)CCc2ccc(OC[C@@H](O)CNCCNC(=O)N3CCOCC3)cc2)O1 [Landiolol hydrochloride],> 45.8,> 45.8
N#C/C(=C1/SCC(c2ccccc2Cl)S1)n1ccnc1 (stereo not drawn) [Lanoconazole],> 45.8,> 45.8
C[C@H](CN1CCCC1)C(=O)c1ccc(C(F)(F)F)cc1 [Lanperisone hydrochloride],> 45.8,> 45.8
CCN(C(=O)c1c(O)c2c(Cl)cccc2n(C)c1=O)c1ccccc1 [Laquinimod],> 45.8,> 45.8
CC(C)OC(=O)CCC/C=C\C[C@@H]1[C@@H](CC[C@@H](O)CCc2ccccc2)[C@H](O)C[C@@H]1O [Latanoprost],> 45.8,> 45.8
CCCCCCCCCCCCSCCOCCOCCOCCOCCOCCOCCOCCOCCOCCO [Laureth 10s],> 45.8,> 45.8

SMILES,IC50 cell viability (ICRF193 0 nM) [µM],IC50 cell viability (ICRF193 200 nM) [µM]
NCCNC(=O)c1ccc(Cl)cn1 [Lazabemide hydrochloride],> 45.8,> 45.8
COC(=O)N[C@H](C(=O)N1CC2(CC2)C[C@H]1c1nc(-c2ccc3c(c2)C(F)(F)c2cc(-c4ccc5[nH]c([C@@H]6[C@H]7CC[C@H](C7)N6C(=O)[C@@H](NC(=O)OC)C(C)C)nc5c4)ccc2-3)c[nH]1)C(C)C [Ledipasvir (GS 5885)],> 45.8,> 45.8
Nc1cccc2c1CN(C1CCC(=O)NC1=O)C2=O (stereo not drawn) [Lenalidomide],> 45.8,> 45.8
Cc1oc(=O)oc1COC(=O)[C@@H]1N2C(=O)[C@@H](NC(=O)[C@H](N)c3ccccc3)[C@H]2SC1(C)C [Lenampicillin hydrochloride],> 45.8,> 45.8
O=C(CCCN1CCC(C(=O)c2ccc(F)cc2)CC1)c1ccc(F)cc1 [Lenperone Hydrochloride],> 45.8,> 45.8
COc1cc2nccc(Oc3ccc(NC(=O)NC4CC4)c(Cl)c3)c2cc1C(N)=O [Lenvatinib],> 45.8,> 45.8
O=C(O)CSc1nnc(Br)n1-c1ccc(C2CC2)c2ccccc12 [Lesinurad (sodium)],> 45.8,> 45.8
COc1cccc(N2CCN(C3=Nc4c(F)cccc4[C@H](CC(=O)O)N3c3cc(C(F)(F)F)ccc3OC)CC2)c1 [Letermovir],> 45.8,> 45.8
N#Cc1ccc(C(c2ccc(C#N)cc2)n2cncn2)cc1 [Letrozole],> 45.8,> 45.8
c1ccc([C@H]2CN3CCSC3=N2)cc1 [Levamisole hydrochloride],> 45.8,> 45.8
CC[C@@H](C(N)=O)N1CCCC1=O [Levetiracetam],> 45.8,> 45.8
CC(C)(C)NC[C@H](O)COc1cccc2c1CCCC2=O [Levobunolol hydrochloride],> 45.8,> 45.8
CCCCN1CCCC[C@H]1C(=O)Nc1c(C)cccc1C [Levobupivacaine hydrochloride],> 45.8,> 45.8
C[C@@H]1CN([C@H]2CC[C@](C#N)(c3ccc(F)cc3)CC2)CC[C@]1(C(=O)O)c1ccccc1 [Levocabastine hydrochloride],> 45.8,> 45.8
N[C@@H](Cc1ccc(O)c(O)c1)C(=O)O [Levodopa],> 45.8,> 45.8
C[C@H]1COc2c(N3CCN(C)CC3)c(F)cc3c(=O)c(C(=O)O)cn1c23 [Levofloxacin],> 45.8,> 45.8
CN1c2c([nH]c(N)nc2=O)NC[C@@H]1CNc1ccc(C(=O)N[C@@H](CCC(=O)O)C(=O)O)cc1 [Levomefolate calcium],> 45.8,> 45.8
C[C@H](N)[C@H](O)c1ccc(O)c(O)c1 [Levonordefrin],> 45.8,> 45.8
CCC(=O)O[C@@](Cc1ccccc1)(c1ccccc1)[C@@H](C)CN(C)C [Levopropoxyphene napsylate],> 45.8,> 45.8
CCN1CCC[C@H]1CNC(=O)c1cc(S(N)(=O)=O)ccc1OC [Levosulpiride],> 45.8,> 45.8
CNC(=O)c1cnn(-c2nc(N)c3ncn([C@@H]4O[C@H](CO)[C@@H](O)[C@H]4O)c3n2)c1 [Lexiscan],> 45.8,> 45.8
Clc1cccc(C(c2ccc3[nH]cnc3c2)n2ccnc2)c1 (stereo not drawn) [Liarozole],> 45.8,> 45.8
